What all share (type): biochemical
The target in one experiment is PI3Kδ enzyme (Homo sapiens, UniProt O00329). Briefly: ADP-Glo kinase assay, inhibition of PI3Kδ enzyme. On the procedure:
(§1) In this experiment, an ADP-Glo™ kinase assay kit is used. A substrate is phosphorylated under the action of enzyme, and ADP is generated at the same time. An ADP-Glo Reagent is added to remove unreacted ATP in the reaction system, and the ADP generated by the reaction is detected by a kinase detection reagent. In the presence of a compound, the inhibition rate of the compound is calculated by measuring the signal value.
(§2) Test compounds were each subjected to 3-fold dilution from a starting concentration of 10000 nM to obtain 11 concentrations, and duplicate wells were set for the test. Gradient dilution to a corresponding 100-fold final concentration in a 384-well plate was performed to obtain solutions with 11 different concentrations. 50 nL of each solution was transferred to compound wells of a 384-well plate with Echo; negative control wells were added with 50 nL of DMSO. A kinase solution with a 2-fold final concentration was prepared using 1×kinase buffer. 2.5 μL of the kinase solution with a 2-fold final concentration was added to the compound wells; 2.5 μL of the 1× kinase buffer was added to the negative control wells. The mixture was centrifuged at 1000 rpm for 30 s, mixed well by shaking, and then incubated at room temperature for 10 min. A mixed solution of ATP and substrate P1P2 with a 2-fold final concentration was prepared using 1× kinase buffer. The reaction was initiated by adding 2.5 μL of the mixed solution of ATP and substrate with a 2-fold final concentration. The mixture in the 384-well plate was centrifuged at 1000 rpm for 30 s, mixed well by shaking, and then reacted at room temperature for 120 min. 5 μL of ADP-Glo reagent was added, and the mixture was centrifuged at 1000 rpm for 30 s, mixed well by shaking, and then incubated at room temperature for 40 min. 10 μL of kinase detection reagent was added, and the resulting mixture was centrifuged at 1000 rpm for 30 s, mixed well by shaking, and then incubated at room temperature for 30 min. The luminescence RLU was read with an Envision microplate reader.
(§3) IC50 values for the inhibitory activity of the compounds were calculated using Graphpad Prism software.
On the technique in general: ADP-Glo turns the ADP formed in a reaction into a luminescent signal.

In the next experiment the target is PI3Kα enzyme (Homo sapiens, UniProt P42336). Briefly: ADP-Glo kinase assay, selectivity, PI3Kα enzyme. The following applies: 11 concentrations from 10000 nM. On the procedure:
as §1, §2, §3

The target in a further experiment is PI3Kβ enzyme (Homo sapiens, UniProt P42338). Briefly: ADP-Glo kinase assay, selectivity, PI3Kβ enzyme. Conditions: 11 concentrations from 10000 nM. On the procedure:
as §1, §2, §3

The target in the next experiment is PI3Kγ enzyme (Homo sapiens, UniProt P48736). Briefly: ADP-Glo kinase assay, selectivity, PI3Kγ enzyme. The following applies: 11 concentrations from 10000 nM. On the procedure:
as §1, §2, §3

Setting [1] is: ADP-Glo, PIK3CD/PIK3R1, 11 concentrations from 10000 nM, read-out: PI3Kδ enzyme IC50.

Read-outs that look alike come from different tables or passages of the source. Bounds are passed on as bounds.

PI3Kα enzyme, sequence (P42336 whole entry): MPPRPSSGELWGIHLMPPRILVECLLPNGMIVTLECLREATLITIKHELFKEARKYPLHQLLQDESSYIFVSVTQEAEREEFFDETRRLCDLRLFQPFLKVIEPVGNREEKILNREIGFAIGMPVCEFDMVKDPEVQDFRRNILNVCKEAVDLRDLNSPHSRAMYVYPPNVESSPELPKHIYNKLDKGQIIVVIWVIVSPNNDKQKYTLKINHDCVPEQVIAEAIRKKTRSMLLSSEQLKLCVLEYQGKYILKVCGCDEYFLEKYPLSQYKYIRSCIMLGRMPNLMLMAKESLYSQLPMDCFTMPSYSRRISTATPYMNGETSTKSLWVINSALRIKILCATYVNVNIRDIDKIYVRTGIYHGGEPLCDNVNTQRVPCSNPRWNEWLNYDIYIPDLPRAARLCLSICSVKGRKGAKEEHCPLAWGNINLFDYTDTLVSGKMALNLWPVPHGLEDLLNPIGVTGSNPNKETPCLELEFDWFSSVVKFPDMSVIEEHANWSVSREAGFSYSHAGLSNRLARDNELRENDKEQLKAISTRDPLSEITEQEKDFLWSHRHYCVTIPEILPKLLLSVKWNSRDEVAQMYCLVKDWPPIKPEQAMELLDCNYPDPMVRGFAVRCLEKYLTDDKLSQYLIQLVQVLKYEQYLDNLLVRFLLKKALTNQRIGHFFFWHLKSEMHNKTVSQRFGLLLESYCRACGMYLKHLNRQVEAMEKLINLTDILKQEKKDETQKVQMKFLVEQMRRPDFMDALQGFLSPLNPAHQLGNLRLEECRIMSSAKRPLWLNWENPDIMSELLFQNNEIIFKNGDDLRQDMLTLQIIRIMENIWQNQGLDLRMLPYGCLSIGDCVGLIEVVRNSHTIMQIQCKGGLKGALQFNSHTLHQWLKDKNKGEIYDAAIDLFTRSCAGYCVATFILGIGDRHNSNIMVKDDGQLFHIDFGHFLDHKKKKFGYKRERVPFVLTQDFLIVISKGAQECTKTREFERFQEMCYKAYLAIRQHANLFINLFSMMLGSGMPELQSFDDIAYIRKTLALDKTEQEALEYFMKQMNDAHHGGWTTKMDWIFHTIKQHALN
PI3Kα enzyme, sequence (P27986 whole entry, further chain): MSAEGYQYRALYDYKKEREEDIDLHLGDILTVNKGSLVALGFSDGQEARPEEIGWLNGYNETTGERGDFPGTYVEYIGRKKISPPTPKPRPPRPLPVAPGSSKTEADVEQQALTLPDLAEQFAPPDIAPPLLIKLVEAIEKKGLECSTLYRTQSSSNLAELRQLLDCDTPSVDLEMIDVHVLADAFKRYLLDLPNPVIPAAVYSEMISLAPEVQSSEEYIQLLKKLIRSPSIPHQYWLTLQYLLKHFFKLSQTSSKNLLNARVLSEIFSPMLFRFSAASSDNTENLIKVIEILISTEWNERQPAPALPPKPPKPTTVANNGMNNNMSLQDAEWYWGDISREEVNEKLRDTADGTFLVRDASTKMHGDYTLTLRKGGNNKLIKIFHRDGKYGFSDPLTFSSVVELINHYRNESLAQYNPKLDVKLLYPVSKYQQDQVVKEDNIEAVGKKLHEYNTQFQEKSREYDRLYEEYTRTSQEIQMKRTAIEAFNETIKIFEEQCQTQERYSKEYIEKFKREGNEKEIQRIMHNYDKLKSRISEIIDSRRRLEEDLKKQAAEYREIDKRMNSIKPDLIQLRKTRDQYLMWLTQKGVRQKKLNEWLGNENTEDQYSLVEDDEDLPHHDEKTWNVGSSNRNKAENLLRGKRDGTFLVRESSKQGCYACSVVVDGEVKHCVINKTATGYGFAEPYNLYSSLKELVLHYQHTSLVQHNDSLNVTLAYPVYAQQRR
PI3Kγ enzyme, sequence (P48736 whole entry): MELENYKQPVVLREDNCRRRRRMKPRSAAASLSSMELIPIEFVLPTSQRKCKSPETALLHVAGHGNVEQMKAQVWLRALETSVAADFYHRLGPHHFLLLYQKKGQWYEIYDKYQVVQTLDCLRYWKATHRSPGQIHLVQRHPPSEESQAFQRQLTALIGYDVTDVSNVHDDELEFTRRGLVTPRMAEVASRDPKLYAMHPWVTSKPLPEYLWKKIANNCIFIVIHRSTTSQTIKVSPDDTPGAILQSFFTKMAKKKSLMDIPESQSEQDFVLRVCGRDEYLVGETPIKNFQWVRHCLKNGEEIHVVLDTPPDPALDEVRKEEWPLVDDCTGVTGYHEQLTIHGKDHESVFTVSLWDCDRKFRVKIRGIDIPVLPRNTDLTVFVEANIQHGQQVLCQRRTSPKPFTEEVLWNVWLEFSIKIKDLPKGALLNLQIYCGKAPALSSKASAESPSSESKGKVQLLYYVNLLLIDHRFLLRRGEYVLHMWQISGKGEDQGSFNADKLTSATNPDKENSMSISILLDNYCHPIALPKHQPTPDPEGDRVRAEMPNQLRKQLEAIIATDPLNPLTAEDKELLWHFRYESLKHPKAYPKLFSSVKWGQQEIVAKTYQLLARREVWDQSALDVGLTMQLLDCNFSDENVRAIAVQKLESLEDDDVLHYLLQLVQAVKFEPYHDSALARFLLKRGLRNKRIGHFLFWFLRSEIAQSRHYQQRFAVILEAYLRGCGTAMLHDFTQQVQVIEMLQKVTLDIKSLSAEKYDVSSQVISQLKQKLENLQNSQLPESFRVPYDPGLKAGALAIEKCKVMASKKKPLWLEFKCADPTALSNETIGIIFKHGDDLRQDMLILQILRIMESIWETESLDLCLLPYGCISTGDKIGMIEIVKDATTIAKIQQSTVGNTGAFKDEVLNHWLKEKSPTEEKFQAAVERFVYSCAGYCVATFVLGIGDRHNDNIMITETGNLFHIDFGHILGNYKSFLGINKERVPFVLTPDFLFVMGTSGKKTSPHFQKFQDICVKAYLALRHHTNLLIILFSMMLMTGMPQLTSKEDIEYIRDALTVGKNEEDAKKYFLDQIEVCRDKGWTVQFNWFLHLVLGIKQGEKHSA
PI3Kβ enzyme, sequence (P27986 whole entry): as the sequence (P27986 whole entry, further chain) above
PI3Kβ enzyme, sequence (P42338 whole entry): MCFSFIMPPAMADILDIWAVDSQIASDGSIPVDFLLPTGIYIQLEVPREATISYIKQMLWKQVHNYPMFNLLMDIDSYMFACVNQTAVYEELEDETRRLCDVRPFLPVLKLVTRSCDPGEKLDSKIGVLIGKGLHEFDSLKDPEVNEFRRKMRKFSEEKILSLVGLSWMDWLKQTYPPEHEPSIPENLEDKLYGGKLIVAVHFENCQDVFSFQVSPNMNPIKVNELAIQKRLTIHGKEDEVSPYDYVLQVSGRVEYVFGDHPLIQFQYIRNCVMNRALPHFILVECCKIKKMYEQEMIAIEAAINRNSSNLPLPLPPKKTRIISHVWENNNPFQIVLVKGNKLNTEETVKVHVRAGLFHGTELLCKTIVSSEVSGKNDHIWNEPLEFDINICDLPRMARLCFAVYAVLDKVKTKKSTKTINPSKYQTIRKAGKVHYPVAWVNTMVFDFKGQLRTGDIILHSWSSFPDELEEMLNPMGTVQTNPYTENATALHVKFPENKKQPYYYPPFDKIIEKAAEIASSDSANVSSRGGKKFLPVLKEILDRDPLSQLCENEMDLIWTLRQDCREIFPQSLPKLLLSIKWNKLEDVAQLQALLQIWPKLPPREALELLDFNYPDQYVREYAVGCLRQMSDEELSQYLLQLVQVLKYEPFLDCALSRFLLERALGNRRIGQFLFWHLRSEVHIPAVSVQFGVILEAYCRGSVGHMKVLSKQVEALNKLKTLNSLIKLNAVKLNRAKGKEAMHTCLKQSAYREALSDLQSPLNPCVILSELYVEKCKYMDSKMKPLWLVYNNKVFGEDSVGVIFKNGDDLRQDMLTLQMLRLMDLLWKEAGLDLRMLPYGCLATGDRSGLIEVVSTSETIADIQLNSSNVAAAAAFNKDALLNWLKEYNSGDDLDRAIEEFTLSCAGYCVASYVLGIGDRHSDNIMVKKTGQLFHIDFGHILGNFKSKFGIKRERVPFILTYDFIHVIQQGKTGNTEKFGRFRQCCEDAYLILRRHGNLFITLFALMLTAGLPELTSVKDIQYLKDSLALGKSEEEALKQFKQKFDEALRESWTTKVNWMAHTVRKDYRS
PI3Kδ enzyme, sequence (O00329 whole entry): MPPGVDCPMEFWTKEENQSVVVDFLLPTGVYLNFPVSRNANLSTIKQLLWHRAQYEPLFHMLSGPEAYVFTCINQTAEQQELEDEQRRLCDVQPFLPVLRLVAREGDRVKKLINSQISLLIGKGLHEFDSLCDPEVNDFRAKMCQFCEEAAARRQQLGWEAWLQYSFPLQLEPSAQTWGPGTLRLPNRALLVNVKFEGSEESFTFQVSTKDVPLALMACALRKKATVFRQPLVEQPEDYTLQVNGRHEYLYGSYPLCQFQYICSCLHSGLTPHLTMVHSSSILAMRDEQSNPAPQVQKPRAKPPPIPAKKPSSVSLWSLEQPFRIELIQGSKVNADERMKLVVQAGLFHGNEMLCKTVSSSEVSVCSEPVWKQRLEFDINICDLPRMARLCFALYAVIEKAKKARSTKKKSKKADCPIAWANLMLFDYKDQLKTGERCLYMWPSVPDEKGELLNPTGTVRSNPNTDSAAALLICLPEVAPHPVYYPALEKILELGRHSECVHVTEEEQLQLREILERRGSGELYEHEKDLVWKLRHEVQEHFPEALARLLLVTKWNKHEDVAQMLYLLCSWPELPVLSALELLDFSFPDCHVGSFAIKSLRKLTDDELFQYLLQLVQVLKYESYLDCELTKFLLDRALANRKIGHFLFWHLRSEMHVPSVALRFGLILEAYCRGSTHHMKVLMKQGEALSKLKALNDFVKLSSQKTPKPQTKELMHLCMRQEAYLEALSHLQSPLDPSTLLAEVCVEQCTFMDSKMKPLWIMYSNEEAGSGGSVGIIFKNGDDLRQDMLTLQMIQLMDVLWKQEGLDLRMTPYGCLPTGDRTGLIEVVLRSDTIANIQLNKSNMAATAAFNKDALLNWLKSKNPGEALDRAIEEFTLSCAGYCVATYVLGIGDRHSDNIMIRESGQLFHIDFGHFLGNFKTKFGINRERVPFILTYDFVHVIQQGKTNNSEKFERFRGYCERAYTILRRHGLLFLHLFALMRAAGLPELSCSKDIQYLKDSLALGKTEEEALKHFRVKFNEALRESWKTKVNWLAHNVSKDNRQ
PI3Kδ enzyme, sequence (P27986 whole entry partner): as the sequence (P27986 whole entry, further chain) above

With `O=C(c1nn(-c2ccc(CN3CCOCC3)cc2)c2c1CS(=O)(=O)c1c(F)cccc1-2)N1CCOCC12CC2` [Control Example 10, (6-fluoro-1-(4-(morpholinomethyl)phenyl)-5,5-dioxido-1,4-dihydrothiochromeno[4,3-c]pyrazol-3-yl)(7-oxa-4-azaspiro[2.5]octan-4-yl)methanone, reference compound], at PI3Kδ enzyme, the 50% inhibitory concentration (IC50) (as a rule, the concentration at which inhibition is half-maximal) is greater than 10 µM.
In the case of `O=C(c1nn(-c2ccc(CN3CCOCC3)cc2)c2c1CS(=O)(=O)c1c(F)cccc1-2)N1CCOC2(CC2)C1` [Example 1, (6-fluoro-1-(4-(morpholinomethyl)phenyl)-5,5-dioxido-1,4-dihydrothiochromeno[4,3-c]pyrazol-3-yl)(4-oxa-7-azaspiro[2.5]octan-7-yl)methanone], the half-inhibitory concentration (IC50) on PI3Kδ enzyme came out at 0.013 µM; against PI3Kα enzyme, 0.468 µM; against PI3Kβ enzyme it was 1.32 µM; at PI3Kγ enzyme, 6.21 µM.
As to `O=C(c1nn(-c2ccc(CN3CCOCC3)cc2)c2c1CS(=O)(=O)c1c(Cl)cccc1-2)N1CCOC2(CC2)C1` [Example 2, (6-chloro-1-(4-(morpholinomethyl)phenyl)-5,5-dioxido-1,4-dihydrothiochromeno[4,3-c]pyrazol-3-yl)(4-oxa-7-azaspiro[2.5]octan-7-yl)methanone], the IC50 on PI3Kδ enzyme (setting [1]) was 0.0184 µM.
For `COc1cccc2c1-c1c(c(C(=O)N3CCOC4(CC4)C3)nn1-c1ccc(CN3CCOCC3)cc1)CS2(=O)=O` [Example 3, (9-methoxy-1-(4-(morpholinomethyl)phenyl)-5,5-dioxido-1,4-dihydrothiochromeno[4,3-c]pyrazol-3-yl)(4-oxa-7-azaspiro[2.5]octan-7-yl)methanone], on PI3Kδ enzyme (setting [1]), the IC50 came to 0.0056 µM.
The same measure, in the same setting: the value for `COc1ccc2c(c1)S(=O)(=O)Cc1c(C(=O)N3CCOC4(CC4)C3)nn(-c3ccc(CN4CCOCC4)cc3)c1-2` [Example 4, (7-methoxy-1-(4-(morpholinomethyl)phenyl)-5,5-dioxido-1,4-dihydrothiochromeno[4,3-c]pyrazol-3-yl)(4-oxa-7-azaspiro[2.5]octan-7-yl)methanone] was 0.0079 µM.
Turning to `COc1cccc2c1S(=O)(=O)Cc1c(C(=O)N3CCOC4(CC4)C3)nn(-c3ccc(CN4CCOCC4)cc3)c1-2` [Example 5, (6-methoxy-1-(4-(morpholinomethyl)phenyl)-5,5-dioxido-1,4-dihydrothiochromeno[4,3-c]pyrazol-3-yl)(4-oxa-7-azaspiro[2.5]octan-7-yl)methanone], the IC50 at PI3Kδ enzyme is 0.019 µM; against PI3Kα enzyme, 2.33 µM; on PI3Kβ enzyme, 2.79 µM; against PI3Kγ enzyme, greater than 10 µM.
The corresponding values for `Cc1cccc2c1S(=O)(=O)Cc1c(C(=O)N3CCOC4(CC4)C3)nn(-c3ccc(CN4CCOCC4)cc3)c1-2` [Example 6, (6-methyl-1-(4-(morpholinomethyl)phenyl)-5,5-dioxido-1,4-dihydrothiochromeno[4,3-c]pyrazol-3-yl)(4-oxa-7-azaspiro[2.5]octan-7-yl)methanone] are 0.068 µM, 2.57 µM, 7.06 µM and greater than 10 µM.
The corresponding values for `O=C(c1nn(-c2ccc(CN3CCOCC3)cc2)c2c1CS(=O)(=O)c1cc(Cl)ccc1-2)N1CCOC2(CC2)C1` [Example 7, (7-chloro-1-(4-(morpholinomethyl)phenyl)-5,5-dioxido-1,4-dihydrothiochromeno[4,3-c]pyrazol-3-yl)(4-oxa-7-azaspiro[2.5]octan-7-yl)methanone] are 0.0265 µM, 1.52 µM, 1.74 µM and greater than 10 µM.
Regarding `Cc1ccc2c(c1)S(=O)(=O)Cc1c(C(=O)N3CCOC4(CC4)C3)nn(-c3ccc(CN4CCOCC4)cc3)c1-2` [Example 9, (7-methyl-1-(4-(morpholinomethyl)phenyl)-5,5-dioxido-1,4-dihydrothiochromeno[4,3-c]pyrazol-3-yl)(4-oxa-7-azaspiro[2.5]octan-7-yl)methanone], the half-inhibitory concentration (IC50) at PI3Kδ enzyme is 0.025 µM; against PI3Kα enzyme, 1.76 µM; against PI3Kβ enzyme it was 1.55 µM; against PI3Kγ enzyme, greater than 10 µM.
For `O=C(c1nn(-c2ccc(CN3CCOCC3)cc2)c2c1CS(=O)(=O)c1c-2ccc(Cl)c1F)N1CCOC2(CC2)C1` [Example 11, (7-chloro-6-fluoro-1-(4-(morpholinomethyl)phenyl)-5,5-dioxido-1,4-dihydrothiochromeno[4,3-c]pyrazol-3-yl)(4-oxa-7-azaspiro[2.5]octan-7-yl)methanone], in that order: 0.0105 µM, 0.441 µM, 0.736 µM and 8.92 µM.
Regarding `Cc1cccc2c1-c1c(c(C(=O)N3CCOC4(CC4)C3)nn1-c1ccc(CN3CCOCC3)cc1)CS2(=O)=O` [Example 12, (9-methyl-1-(4-(morpholinomethyl)phenyl)-5,5-dioxido-1,4-dihydrothiochromeno[4,3-c]pyrazol-3-yl)(4-oxa-7-azaspiro[2.5]octan-7-yl)methanone], at PI3Kδ enzyme (setting [1]), the half-inhibitory concentration (IC50) is 0.0058 µM.

The record behind these values is patent publication US20230234962A1, “OXA-AZASPIRO DERIVATIVE, AND PREPARATION METHOD THEREFOR AND PHARMACEUTICAL USE THEREOF” (priority 2020, published 2023).
